Values joined by “and” are separate entries in the source; they are usually repeats but may differ in a detail not shown here. Equal entries are not always repeated.
Experiment: Henry solubility constant Hcp at 298.15 K (mol/(m3 Pa))
Conditions: reference: Zhang et al. (2013)

Row | Structure (SMILES) | Henry solubility constant Hcp
1 | ClC=C(Cl)Cl [trichloroethene] | 0.0016 and 0.0013
2 | Cc1ccccc1C [1,2-dimethylbenzene] | 0.0027 and 0.0022
3 | O=[N+]([O-])c1ccccc1 [nitrobenzene] | 0.14
4 | CCc1ccccc1 [ethylbenzene] | 0.0019 and 0.0014
5 | c1ccccc1 [benzene] | 0.0027 and 0.0035
6 | Cc1ccccc1 [methylbenzene] | 0.0028

Reference: Sander's compilation of Henry's law constants (doi:10.14233/ajchem.2013.13584)
